# In ChEMBL document CHEMBL1201862, “PubChem BioAssay data set” (2004):
#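 Exposure lasted 48 hours, with cells grown in 96-well plates and compounds tested at five concentrations. GI50 marks 50% less growth.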 The source made the active and inactive calls. Cut-off read from the data, not from the text of the source: active = GI50 up to about 1.1 µM and inactive = higher.
# Columns and labels:
# Assay in all cases: DTP human tumour cell line panel, 48 h
# OVCAR-5 = tested on: OVCAR-5
# MCF7 = tested on: MCF7
# TK-10 = tested on: TK-10
# PC-3 = tested on: PC-3
# SN12C = tested on: SN12C
# M14 = tested on: M14
# Hs-578T = tested on: Hs-578T
# HCT-116 = tested on: HCT-116
# SK-MEL-5 = tested on: SK-MEL-5
# SK-MEL-2 = tested on: SK-MEL-2
# NCI-H226 = tested on: NCI-H226
# NCI-H522 = tested on: NCI-H522
# ACHN = tested on: ACHN
# UO-31 = tested on: UO-31
# DU-145 = tested on: DU-145
# HL-60 = tested on: HL-60
# HOP-62 = tested on: HOP-62
# U-251 = tested on: U-251
# HT-29 = tested on: HT-29
# SK-MEL-28 = tested on: SK-MEL-28
SMILES,GI50 (OVCAR-5),GI50 (MCF7),GI50 (TK-10),GI50 (PC-3),GI50 (SN12C),GI50 (M14),GI50 (Hs-578T),GI50 (HCT-116),GI50 (SK-MEL-5),GI50 (SK-MEL-2),GI50 (NCI-H226),GI50 (NCI-H522),GI50 (ACHN),GI50 (UO-31),GI50 (DU-145),GI50 (HL-60),GI50 (HOP-62),GI50 (U-251),GI50 (HT-29),GI50 (SK-MEL-28)
NCCO/C=C/C(N)C(=O)O (stereo not given) [AMINOETHOXYVINYLGLYCINE],> 100 µM (inactive),> 100 µM (inactive),> 100 µM (inactive),> 100 µM (inactive),> 100 µM (inactive),> 100 µM (inactive),> 100 µM (inactive),> 100 µM (inactive),> 100 µM (inactive),> 100 µM (inactive),> 100 µM (inactive),10.1 µM (inactive),> 100 µM (inactive),> 100 µM (inactive),> 100 µM (inactive),> 100 µM (inactive),> 100 µM (inactive),> 100 µM (inactive),> 100 µM (inactive),> 100 µM (inactive)
COCC12CCC(OC)C34C5CC6(O)C(OC)CC(OC(C)=O)(C5C6OC(=O)c5ccccc5)C(C(OC)C13)C4N(C)C2 (stereo not given),> 100 µM (inactive),> 100 µM (inactive),> 100 µM (inactive),> 100 µM (inactive),> 100 µM (inactive),> 100 µM (inactive),> 100 µM (inactive),> 100 µM (inactive),> 100 µM (inactive),> 100 µM (inactive),> 100 µM (inactive),> 100 µM (inactive),> 100 µM (inactive),> 100 µM (inactive),> 100 µM (inactive),83.8 µM (inactive),> 100 µM (inactive),> 100 µM (inactive),> 100 µM (inactive),> 100 µM (inactive)
O=[N+]([O-])c1ccc2c(c1)S(=O)(=O)N1Cc3ccccc3CCN21,> 100 µM (inactive),> 100 µM (inactive),> 100 µM (inactive),> 100 µM (inactive),> 100 µM (inactive),> 100 µM (inactive),26.7 µM (inactive),> 100 µM (inactive),> 100 µM (inactive),> 100 µM (inactive),> 100 µM (inactive),> 100 µM (inactive),> 100 µM (inactive),> 100 µM (inactive),> 100 µM (inactive),> 100 µM (inactive),> 100 µM (inactive),45.1 µM (inactive),> 100 µM (inactive),> 100 µM (inactive)
COC(O)C(=O)c1c2c(cc3c1CCC3)CCC2 (stereo not given),> 100 µM (inactive),> 100 µM (inactive),> 100 µM (inactive),> 100 µM (inactive),> 100 µM (inactive),> 100 µM (inactive),> 100 µM (inactive),> 100 µM (inactive),> 100 µM (inactive),> 100 µM (inactive),> 100 µM (inactive),> 100 µM (inactive),> 100 µM (inactive),> 100 µM (inactive),> 100 µM (inactive),22.6 µM (inactive),> 100 µM (inactive),> 100 µM (inactive),> 100 µM (inactive),> 100 µM (inactive)
N#CC1(C#N)C2(c3ccccc3)OC(c3ccccc3)(c3cc4ccccc4cc32)C1(C#N)C#N,15.8 µM (inactive),5.38 µM (inactive),16.2 µM (inactive),17.1 µM (inactive),16.6 µM (inactive),10.6 µM (inactive),25.8 µM (inactive),7.03 µM (inactive),14.3 µM (inactive),19.4 µM (inactive),12.6 µM (inactive),3.01 µM (inactive),11.8 µM (inactive),24 µM (inactive),14.5 µM (inactive),2.37 µM (inactive),20.7 µM (inactive),16.3 µM (inactive),14.8 µM (inactive),12.4 µM (inactive)
CN(C)CCNc1nc(-c2ccc3ccccc3c2)nc2[nH]cnc12,13.1 µM (inactive),7.33 µM (inactive),6.38 µM (inactive),4.76 µM (inactive),11.1 µM (inactive),11.4 µM (inactive),5.18 µM (inactive),8.83 µM (inactive),10.7 µM (inactive),14.6 µM (inactive),2.59 µM (inactive),1.12 µM (active),2.73 µM (inactive),3.03 µM (inactive),10.6 µM (inactive),3.93 µM (inactive),10.9 µM (inactive),13.1 µM (inactive),3.84 µM (inactive),13.6 µM (inactive)
CC1OC(OC2C(O[C@H]3CC[C@@]4(C)C(=CC[C@H]5[C@@H]6C[C@@H]7O[C@]8(CC[C@@H](C)CO8)[C@@H](C)[C@@H]7[C@@]6(C)CC[C@@H]54)C3)OC(CO)C(O)C2OC2OC(CO)C(O)C(O)C2O)C(O)C(O)C1O (stereo not given in full),13 µM (inactive),2.19 µM (inactive),1.93 µM (inactive),1.87 µM (inactive),8.75 µM (inactive),2.35 µM (inactive),1.73 µM (inactive),2.58 µM (inactive),2.04 µM (inactive),1.72 µM (inactive),2 µM (inactive),1.86 µM (inactive),1.8 µM (inactive),1.94 µM (inactive),2.08 µM (inactive),3.35 µM (inactive),2.22 µM (inactive),1.89 µM (inactive),14.7 µM (inactive),1.9 µM (inactive)
N#CC(C#N)=Cc1c(O)ccc2ccccc12,17 µM (inactive),10.1 µM (inactive),18.1 µM (inactive),17.5 µM (inactive),13.6 µM (inactive),13.8 µM (inactive),17.3 µM (inactive),11.4 µM (inactive),13.3 µM (inactive),13.7 µM (inactive),21.3 µM (inactive),9.93 µM (inactive),10.4 µM (inactive),14 µM (inactive),14.2 µM (inactive),2.99 µM (inactive),20.6 µM (inactive),15.9 µM (inactive),14.5 µM (inactive),14.5 µM (inactive)
COc1cc2c(cc1OC)C(Cl)C(c1ccc(Br)cc1)=C2Cl (stereo not given),15.4 µM (inactive),7.21 µM (inactive),11.4 µM (inactive),7.82 µM (inactive),10.6 µM (inactive),11.2 µM (inactive),6.19 µM (inactive),9.16 µM (inactive),14.4 µM (inactive),9.08 µM (inactive),11.3 µM (inactive),4.42 µM (inactive),9.46 µM (inactive),8.65 µM (inactive),11.3 µM (inactive),5.46 µM (inactive),17.9 µM (inactive),10.2 µM (inactive),13.3 µM (inactive),14.8 µM (inactive)
COC1/C=C\OC2(C)Oc3c(C)c(O)c4c(O)c(c(CN(C)C)c(O)c4c3C2=O)NC(=O)/C(C)=C\C=C/C(C)C(O)C(C)C(O)C(C)C(OC(C)=O)C1C (stereo not given),> 100 µM (inactive),17.9 µM (inactive),35.3 µM (inactive),23 µM (inactive),25.9 µM (inactive),19.4 µM (inactive),30.7 µM (inactive),18.3 µM (inactive),18.5 µM (inactive),18.7 µM (inactive),> 100 µM (inactive),16.2 µM (inactive),61.9 µM (inactive),39 µM (inactive),32.3 µM (inactive),18.5 µM (inactive),55.1 µM (inactive),19.7 µM (inactive),20.6 µM (inactive),31.4 µM (inactive)
